Activity calls are given as the source filed them. The calls are words filed in the database; no cut-off is given here.
Legend:
[1] = target: Protein mono-ADP-ribosyltransferase PARP11 (Homo sapiens) (UniProt Q9NR21); test: Inhibition of human N-terminal FLAG-tagged/C-terminal His-tagged recombinant PARP11 (8 to 338 (end) residues) expressed in Sf9 cells at 1 uM relative to control
THP-1 = test: Inhibition of PARP1/2 mediated DNA repair pathway in human THP-1 cells assessed as induction of gamma-H2AX phosphorylation at 10 uM incubated for 24 hrs by immunoblotting analysis; format: cell-based
Felis catus [2] = species: Felis catus; test: Binding affinity to cat PARP2 assessed as dissociative half-life by SPR assay
[3] = target: Protein mono-ADP-ribosyltransferase PARP15 (Homo sapiens) (UniProt Q460N3); test: Inhibition of human N-terminal GST-tagged recombinant PARP15 (221 to 444(end) residues) expressed in Escherichia coli at 1 uM relative to control
Protein mono-ADP-ribosyltransferase PARP15 (Homo sapiens), sequence (Q460N3 whole entry): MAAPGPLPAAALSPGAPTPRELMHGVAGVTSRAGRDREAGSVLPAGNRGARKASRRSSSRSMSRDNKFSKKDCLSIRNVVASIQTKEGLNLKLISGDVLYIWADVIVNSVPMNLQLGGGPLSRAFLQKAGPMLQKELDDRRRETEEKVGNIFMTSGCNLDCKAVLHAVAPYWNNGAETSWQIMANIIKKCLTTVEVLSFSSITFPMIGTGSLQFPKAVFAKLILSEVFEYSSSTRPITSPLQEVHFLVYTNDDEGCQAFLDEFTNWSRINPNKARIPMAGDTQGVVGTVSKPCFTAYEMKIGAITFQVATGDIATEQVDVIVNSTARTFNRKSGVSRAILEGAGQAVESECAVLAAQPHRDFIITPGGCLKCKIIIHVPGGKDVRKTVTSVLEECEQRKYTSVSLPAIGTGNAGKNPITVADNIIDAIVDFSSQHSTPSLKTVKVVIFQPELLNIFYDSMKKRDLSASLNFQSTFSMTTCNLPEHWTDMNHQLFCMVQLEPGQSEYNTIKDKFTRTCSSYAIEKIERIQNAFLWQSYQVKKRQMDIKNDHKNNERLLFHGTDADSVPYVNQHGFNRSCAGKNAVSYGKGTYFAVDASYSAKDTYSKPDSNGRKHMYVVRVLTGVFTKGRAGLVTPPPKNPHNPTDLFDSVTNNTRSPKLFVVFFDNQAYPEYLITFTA

[4] = target: Protein mono-ADP-ribosyltransferase TIPARP (Homo sapiens) (UniProt Q7Z3E1); test: Inhibition of PARP7 in human THP-1 cells assessed as induction of TBK1 phosphorylation at 10 uM incubated for 24 hrs by immunoblotting analysis; format: cell-based
Protein mono-ADP-ribosyltransferase TIPARP (Homo sapiens), sequence (Q7Z3E1 whole entry, the tested form may be a part): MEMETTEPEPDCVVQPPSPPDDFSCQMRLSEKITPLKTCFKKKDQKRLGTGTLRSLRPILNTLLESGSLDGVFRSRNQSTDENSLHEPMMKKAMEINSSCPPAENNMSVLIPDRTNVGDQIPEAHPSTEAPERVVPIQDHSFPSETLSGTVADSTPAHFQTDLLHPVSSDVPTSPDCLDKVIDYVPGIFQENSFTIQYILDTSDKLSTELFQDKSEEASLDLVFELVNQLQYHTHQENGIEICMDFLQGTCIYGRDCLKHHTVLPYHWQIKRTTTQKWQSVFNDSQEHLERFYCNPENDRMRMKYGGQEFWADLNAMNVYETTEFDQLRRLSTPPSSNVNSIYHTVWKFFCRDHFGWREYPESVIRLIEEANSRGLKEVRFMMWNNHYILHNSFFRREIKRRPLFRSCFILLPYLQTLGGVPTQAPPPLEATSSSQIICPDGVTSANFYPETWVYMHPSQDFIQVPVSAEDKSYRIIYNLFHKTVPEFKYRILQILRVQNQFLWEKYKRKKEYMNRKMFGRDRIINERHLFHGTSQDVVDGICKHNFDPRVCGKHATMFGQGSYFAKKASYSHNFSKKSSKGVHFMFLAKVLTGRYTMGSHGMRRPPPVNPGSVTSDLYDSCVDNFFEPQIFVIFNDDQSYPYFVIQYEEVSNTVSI

[5] = target: Protein mono-ADP-ribosyltransferase PARP10 (Homo sapiens) (UniProt Q53GL7); test: Inhibition of human N-terminal FLAG-tagged/C-terminal Strep-tagged recombinant PARP10 (805 to 1025 residues) expressed in Sf9 cells at 1 uM relative to control
Protein mono-ADP-ribosyltransferase PARP10 (Homo sapiens), sequence (Q53GL7 whole entry, the tested form may be a part): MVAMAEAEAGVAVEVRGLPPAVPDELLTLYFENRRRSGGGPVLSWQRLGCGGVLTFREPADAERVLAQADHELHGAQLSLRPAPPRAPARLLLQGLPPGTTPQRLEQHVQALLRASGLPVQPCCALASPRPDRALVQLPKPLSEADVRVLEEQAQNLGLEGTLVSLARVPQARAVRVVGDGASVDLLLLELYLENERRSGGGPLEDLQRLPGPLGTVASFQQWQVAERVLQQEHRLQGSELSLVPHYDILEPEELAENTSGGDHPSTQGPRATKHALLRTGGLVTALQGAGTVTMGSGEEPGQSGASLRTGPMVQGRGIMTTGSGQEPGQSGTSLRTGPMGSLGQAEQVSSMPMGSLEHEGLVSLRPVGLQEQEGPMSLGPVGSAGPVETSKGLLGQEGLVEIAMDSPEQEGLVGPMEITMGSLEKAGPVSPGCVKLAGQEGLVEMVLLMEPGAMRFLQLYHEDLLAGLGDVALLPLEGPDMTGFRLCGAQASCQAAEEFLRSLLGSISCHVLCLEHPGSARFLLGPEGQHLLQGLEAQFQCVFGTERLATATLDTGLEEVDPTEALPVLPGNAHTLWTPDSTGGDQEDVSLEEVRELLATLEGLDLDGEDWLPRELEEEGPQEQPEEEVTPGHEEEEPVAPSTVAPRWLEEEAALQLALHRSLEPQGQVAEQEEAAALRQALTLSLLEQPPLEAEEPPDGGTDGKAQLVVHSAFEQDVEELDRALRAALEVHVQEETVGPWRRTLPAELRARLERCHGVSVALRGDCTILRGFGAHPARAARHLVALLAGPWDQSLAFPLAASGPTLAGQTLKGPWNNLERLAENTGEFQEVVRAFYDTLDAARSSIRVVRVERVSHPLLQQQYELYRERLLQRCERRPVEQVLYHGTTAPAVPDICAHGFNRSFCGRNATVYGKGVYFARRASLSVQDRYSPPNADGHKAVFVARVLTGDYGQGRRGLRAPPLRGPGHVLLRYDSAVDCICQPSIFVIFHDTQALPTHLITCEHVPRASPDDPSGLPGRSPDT

[6] = target: Protein mono-ADP-ribosyltransferase PARP14 (Homo sapiens) (UniProt Q460N5); test: Inhibition of human N-terminal GST/His-tagged recombinant PARP14 (1470 to 1801(end) residues) expressed in Sf9 cells at 1 uM relative to control
Protein mono-ADP-ribosyltransferase PARP14 (Homo sapiens), sequence (Q460N5 whole entry): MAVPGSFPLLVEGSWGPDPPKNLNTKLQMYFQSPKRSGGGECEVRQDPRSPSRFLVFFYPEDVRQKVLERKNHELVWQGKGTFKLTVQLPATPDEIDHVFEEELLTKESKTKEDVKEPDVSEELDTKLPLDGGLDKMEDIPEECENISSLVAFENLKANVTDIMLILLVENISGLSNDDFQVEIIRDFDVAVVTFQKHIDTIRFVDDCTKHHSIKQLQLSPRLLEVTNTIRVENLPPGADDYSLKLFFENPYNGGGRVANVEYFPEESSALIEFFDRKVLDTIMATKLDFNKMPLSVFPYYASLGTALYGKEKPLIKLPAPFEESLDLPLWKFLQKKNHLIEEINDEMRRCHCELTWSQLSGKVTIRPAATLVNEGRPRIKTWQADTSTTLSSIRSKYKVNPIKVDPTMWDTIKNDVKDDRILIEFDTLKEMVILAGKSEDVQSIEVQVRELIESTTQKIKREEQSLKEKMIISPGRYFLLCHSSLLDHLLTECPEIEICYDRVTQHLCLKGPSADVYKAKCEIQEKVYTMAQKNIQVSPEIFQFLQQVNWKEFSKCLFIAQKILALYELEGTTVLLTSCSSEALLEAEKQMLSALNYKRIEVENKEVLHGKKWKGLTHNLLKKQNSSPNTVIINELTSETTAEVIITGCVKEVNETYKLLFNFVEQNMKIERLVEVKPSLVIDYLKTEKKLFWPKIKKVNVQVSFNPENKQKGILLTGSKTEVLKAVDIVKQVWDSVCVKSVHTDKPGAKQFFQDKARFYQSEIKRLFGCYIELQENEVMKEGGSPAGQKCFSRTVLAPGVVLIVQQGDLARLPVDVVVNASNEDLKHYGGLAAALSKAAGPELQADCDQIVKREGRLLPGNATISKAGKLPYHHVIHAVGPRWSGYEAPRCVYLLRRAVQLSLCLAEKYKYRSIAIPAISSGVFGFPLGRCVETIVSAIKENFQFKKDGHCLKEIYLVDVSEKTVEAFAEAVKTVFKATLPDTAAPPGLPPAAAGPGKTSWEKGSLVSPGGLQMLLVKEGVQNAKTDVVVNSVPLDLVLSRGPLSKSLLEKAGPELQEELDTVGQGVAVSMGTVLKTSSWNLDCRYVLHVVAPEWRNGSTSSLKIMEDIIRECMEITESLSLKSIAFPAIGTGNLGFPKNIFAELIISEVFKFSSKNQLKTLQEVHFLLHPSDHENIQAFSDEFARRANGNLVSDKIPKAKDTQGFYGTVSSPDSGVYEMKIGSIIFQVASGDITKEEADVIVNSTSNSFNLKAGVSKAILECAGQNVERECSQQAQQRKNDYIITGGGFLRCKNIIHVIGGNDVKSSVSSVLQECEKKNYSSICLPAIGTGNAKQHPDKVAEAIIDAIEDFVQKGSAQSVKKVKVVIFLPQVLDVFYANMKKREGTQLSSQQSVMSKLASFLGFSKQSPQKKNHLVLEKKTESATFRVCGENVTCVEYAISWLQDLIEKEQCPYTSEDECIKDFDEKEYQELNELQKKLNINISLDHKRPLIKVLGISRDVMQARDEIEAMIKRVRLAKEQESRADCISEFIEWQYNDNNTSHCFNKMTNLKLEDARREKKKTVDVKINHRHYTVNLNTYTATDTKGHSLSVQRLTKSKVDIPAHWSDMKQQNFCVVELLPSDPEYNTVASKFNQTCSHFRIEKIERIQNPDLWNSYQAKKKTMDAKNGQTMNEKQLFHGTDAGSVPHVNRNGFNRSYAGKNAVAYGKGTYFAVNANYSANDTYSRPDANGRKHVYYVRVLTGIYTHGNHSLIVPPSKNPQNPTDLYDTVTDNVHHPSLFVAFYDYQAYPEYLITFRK

[7] = target: Protein mono-ADP-ribosyltransferase PARP12 (Homo sapiens) (UniProt Q9H0J9); test: Inhibition of human N-terminal FLAG/His-tagged recombinant PARP12 (500 to 701(end) residues) expressed in Sf9 cells at 1 uM relative to control
MC-38 = test: Antitumor activity against mouse MC38 cells implanted in C57BL/6 mouse assessed as increase in CD8+T cells in tumor at 10 mg/kg, po qd measured after 17 days by flow cytometry analysis; format: functional, organism-based; conditions: time 17.0 day
[8] = target: Poly [ADP-ribose] polymerase tankyrase-2 (Homo sapiens) (UniProt Q9H2K2); test: Inhibition of human recombinant N-terminal GST-tagged TNKS2 (849 to 1166(end) residues) expressed in Sf9 cells at 1 uM relative to control
[9] = target: Poly [ADP-ribose] polymerase tankyrase-1 (Homo sapiens) (UniProt O95271); test: Inhibition of human recombinant N-terminal GST-tagged TNKS1 (1001 to 1327(end) residues) expressed in Sf9 cells at 1 uM relative to control
Felis catus [10] = species: Felis catus; test: Binding affinity to cat PARP1 assessed as dissociative half-life by SPR assay
[11] = target: Poly [ADP-ribose] polymerase 1 (Homo sapiens, UniProt P09874); test: Inhibition of human PARP1 in human MX1 cells assessed as enzyme-DNA trapping activity at 1 uM incubated for 24 hrs by Western blot analysis; format: cell-based

Protein mono-ADP-ribosyltransferase PARP11 (Homo sapiens), sequence (Q9NR21 whole entry): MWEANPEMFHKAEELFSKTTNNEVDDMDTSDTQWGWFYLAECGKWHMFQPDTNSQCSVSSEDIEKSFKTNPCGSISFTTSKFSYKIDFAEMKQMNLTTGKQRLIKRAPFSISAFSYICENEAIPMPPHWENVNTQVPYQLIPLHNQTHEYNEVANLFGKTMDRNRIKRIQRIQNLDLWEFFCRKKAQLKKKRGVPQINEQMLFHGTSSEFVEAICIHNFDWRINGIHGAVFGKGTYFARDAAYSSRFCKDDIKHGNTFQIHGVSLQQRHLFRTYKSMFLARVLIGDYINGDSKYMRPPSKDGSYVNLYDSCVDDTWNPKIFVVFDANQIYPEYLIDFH

inhibition [1]: inactive
T1/2 (Felis catus [2]): 2.33 h
inhibition [3]: 45%
inhibition [4]: Active
inhibition [5]: inactive
inhibition [6]: inactive
inhibition [7]: inactive
inhibition [8]: inactive
inhibition [9]: inactive
T1/2 (Felis catus [10]): 2.36 h
PARP1-DNA trapping activity [11]: Active
Compound: CCC(CC)N1CCN(C(=O)c2cc(Cn3c(=O)[nH]c(=O)c4ccccc43)ccc2F)CC1=O
inhibition (THP-1): Active
Activity (MC-38): Active

From ChEMBL document CHEMBL5370623, “Discovery of Quinazoline-2,4(1H,3H)-dione Derivatives Containing a Piperizinone Moiety as Potent PARP-1/2 Inhibitors─Design, Synthesis, In Vivo Antitumor Activity, and X-ray Crystal Structure Analysis” (J Med Chem, 2023)
